Data taken from PubChem BioAssay (NCI).
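A five-concentration, 48-hour dose response in 96-well plates underlies each endpoint, interpolated linearly between surrounding concentrations. GI50 marks 50% less growth. The concentration for full growth arrest is given as TGI.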

Key:
Test in all cases: inhibition of tumour cell growth, NCI panel, 48 h
MCF7 breast = test system: MCF7 breast
UACC-257 melanoma = test system: UACC-257 melanoma
SF-295 CNS = test system: SF-295 CNS
HL-60(TB) leukemia = test system: HL-60(TB) leukemia
HCT-116 colon = test system: HCT-116 colon
SNB-19 CNS = test system: SNB-19 CNS
IGROV1 ovarian = test system: IGROV1 ovarian
SR leukemia = test system: SR leukemia
HOP-62 NSCLC = test system: HOP-62 NSCLC
DU-145 prostate = test system: DU-145 prostate
U251 CNS = test system: U251 CNS
A498 renal = test system: A498 renal
COLO 205 colon = test system: COLO 205 colon
KM12 colon = test system: KM12 colon
NCI/ADR-RES ovarian = test system: NCI/ADR-RES ovarian
EKVX NSCLC = test system: EKVX NSCLC
MALME-3M melanoma = test system: MALME-3M melanoma
RXF 393 renal = test system: RXF 393 renal
NCI-H522 lung = test system: NCI-H522 lung
M14 melanoma = test system: M14 melanoma
CCRF-CEM leukemia = test system: CCRF-CEM leukemia
NCI-H226 lung = test system: NCI-H226 lung
K-562 leukemia = test system: K-562 leukemia
RPMI-8226 leukemia = test system: RPMI-8226 leukemia
SK-MEL-2 melanoma = test system: SK-MEL-2 melanoma
UO-31 renal = test system: UO-31 renal
SNB-75 CNS = test system: SNB-75 CNS
CAKI-1 renal = test system: CAKI-1 renal
786-0 renal = test system: 786-0 renal
SF-539 CNS = test system: SF-539 CNS
MDA-MB-231 breast = test system: MDA-MB-231 breast
HCT-15 colon = test system: HCT-15 colon
OVCAR-8 ovarian = test system: OVCAR-8 ovarian
PC-3 prostate = test system: PC-3 prostate
OVCAR-3 ovarian = test system: OVCAR-3 ovarian
HOP-92 NSCLC = test system: HOP-92 NSCLC
SK-OV-3 ovarian = test system: SK-OV-3 ovarian
ACHN renal = test system: ACHN renal
MDA-MB-435 = test system: MDA-MB-435
MOLT-4 leukemia = test system: MOLT-4 leukemia
OVCAR-5 ovarian = test system: OVCAR-5 ovarian
SN12C renal = test system: SN12C renal
SK-MEL-5 melanoma = test system: SK-MEL-5 melanoma
HCC-2998 colon = test system: HCC-2998 colon
NCI-H23 lung = test system: NCI-H23 lung
TK-10 renal = test system: TK-10 renal
BT-549 breast = test system: BT-549 breast
SK-MEL-28 melanoma = test system: SK-MEL-28 melanoma
NCI-H460 lung = test system: NCI-H460 lung
UACC-62 melanoma = test system: UACC-62 melanoma
OVCAR-4 ovarian = test system: OVCAR-4 ovarian
HT29 colon = test system: HT29 colon
SW-620 colon = test system: SW-620 colon
T-47D breast = test system: T-47D breast
LOX IMVI melanoma = test system: LOX IMVI melanoma
HS 578T breast = test system: HS 578T breast
SF-268 CNS = test system: SF-268 CNS

For CC(C)=NNc1ncnc2c1ncn2C1OC(CO)C(O)C1O (stereo unspecified), the GI50 (MCF7 breast) was 327 nM, the TGI (MCF7 breast) was > 51500 nM and the GI50 (UACC-257 melanoma) was 5750 nM. The TGI (UACC-257 melanoma) was > 100000 nM, the GI50 (SF-295 CNS) was 529 nM and the TGI (SF-295 CNS) was > 33200 nM. It also gave a GI50 (HL-60(TB) leukemia) of 402 nM, a TGI (HL-60(TB) leukemia) of 5610 nM and a GI50 (HCT-116 colon) of 144 nM. The TGI (HCT-116 colon) was 2070 nM, the GI50 (SNB-19 CNS) was 1430 nM and the TGI (SNB-19 CNS) was > 100000 nM. For the same compound, the GI50 (IGROV1 ovarian) was 287 nM, the GI50 (SR leukemia) was 414 nM and the TGI (SR leukemia) was > 22000 nM. For the same compound, the GI50 (HOP-62 NSCLC) was 398 nM, the TGI (HOP-62 NSCLC) was 4210 nM and the GI50 (DU-145 prostate) was 324 nM. The TGI (DU-145 prostate) was 2400 nM, the GI50 (U251 CNS) was 648 nM and the TGI (U251 CNS) was > 100000 nM. The GI50 (A498 renal) was 1430 nM, the TGI (A498 renal) was > 100000 nM and the GI50 (COLO 205 colon) was 414 nM. The TGI (COLO 205 colon) was 6310 nM, the GI50 (KM12 colon) was 378 nM and the TGI (KM12 colon) was 2650 nM. For the same compound, the GI50 (NCI/ADR-RES ovarian) was 442 nM, the TGI (NCI/ADR-RES ovarian) was > 21600 nM and the GI50 (EKVX NSCLC) was 2950 nM. The TGI (EKVX NSCLC) was > 73400 nM, the GI50 (MALME-3M melanoma) was 11800 nM and the TGI (MALME-3M melanoma) was > 100000 nM. The GI50 (RXF 393 renal) was 300 nM, the TGI (RXF 393 renal) was 3540 nM and the GI50 (NCI-H522 lung) was 283 nM. For the same compound, the TGI (NCI-H522 lung) was 3240 nM, the GI50 (M14 melanoma) was 752 nM and the TGI (M14 melanoma) was > 100000 nM. The GI50 (CCRF-CEM leukemia) was 581 nM, the TGI (CCRF-CEM leukemia) was > 100000 nM and the GI50 (NCI-H226 lung) was 448 nM. The TGI (NCI-H226 lung) was > 100000 nM, the GI50 (K-562 leukemia) was 417 nM and the TGI (K-562 leukemia) was > 100000 nM. For the same compound, the GI50 (RPMI-8226 leukemia) was 537 nM, the TGI (RPMI-8226 leukemia) was 4040 nM and the GI50 (SK-MEL-2 melanoma) was 1810 nM. For the same compound, the TGI (SK-MEL-2 melanoma) was 29200 nM, the GI50 (UO-31 renal) was 354 nM and the TGI (UO-31 renal) was 7680 nM. The GI50 (SNB-75 CNS) was 1340 nM, the TGI (SNB-75 CNS) was > 78100 nM and the GI50 (CAKI-1 renal) was 303 nM. The TGI (CAKI-1 renal) was 17100 nM, the GI50 (786-0 renal) was 720 nM and the TGI (786-0 renal) was 30400 nM. The GI50 (SF-539 CNS) was 2060 nM, the TGI (SF-539 CNS) was 11300 nM and the GI50 (MDA-MB-231 breast) was 285 nM. For the same compound, the TGI (MDA-MB-231 breast) was 13600 nM, the GI50 (HCT-15 colon) was 217 nM and the GI50 (OVCAR-8 ovarian) was 332 nM. For the same compound, the TGI (OVCAR-8 ovarian) was > 100000 nM, the GI50 (PC-3 prostate) was 733 nM and the TGI (PC-3 prostate) was 29100 nM. For the same compound, the GI50 (OVCAR-3 ovarian) was 385 nM, the TGI (OVCAR-3 ovarian) was 1970 nM and the GI50 (HOP-92 NSCLC) was 503 nM. The TGI (HOP-92 NSCLC) was 5270 nM, the GI50 (SK-OV-3 ovarian) was 324 nM and the TGI (SK-OV-3 ovarian) was 4220 nM. For the same compound, the GI50 (ACHN renal) was 278 nM, the TGI (ACHN renal) was 3240 nM and the GI50 (MDA-MB-435) was 528 nM. The TGI (MDA-MB-435) was 11700 nM, the GI50 (MOLT-4 leukemia) was 4860 nM and the TGI (MOLT-4 leukemia) was > 100000 nM. The GI50 (OVCAR-5 ovarian) was 1160 nM, the TGI (OVCAR-5 ovarian) was > 31100 nM and the GI50 (SN12C renal) was 476 nM. The TGI (SN12C renal) was 15300 nM, the GI50 (SK-MEL-5 melanoma) was 990 nM and the TGI (SK-MEL-5 melanoma) was 4200 nM. For the same compound, the GI50 (HCC-2998 colon) was 1940 nM, the TGI (HCC-2998 colon) was > 53000 nM and the GI50 (NCI-H23 lung) was 1480 nM. For the same compound, the TGI (NCI-H23 lung) was 19400 nM, the GI50 (TK-10 renal) was 529 nM and the TGI (TK-10 renal) was > 100000 nM. It also gave a GI50 (BT-549 breast) of 1610 nM, a TGI (BT-549 breast) of 15400 nM and a GI50 (SK-MEL-28 melanoma) of 4500 nM. For the same compound, the TGI (SK-MEL-28 melanoma) was > 100000 nM, the GI50 (NCI-H460 lung) was 304 nM and the GI50 (UACC-62 melanoma) was 1210 nM. The TGI (UACC-62 melanoma) was 9300 nM, the GI50 (OVCAR-4 ovarian) was 509 nM and the TGI (OVCAR-4 ovarian) was > 32100 nM. The GI50 (HT29 colon) was 268 nM, the TGI (HT29 colon) was > 100000 nM and the GI50 (SW-620 colon) was 381 nM. The TGI (SW-620 colon) was > 100000 nM, the GI50 (T-47D breast) was 542 nM and the TGI (T-47D breast) was 9600 nM. The GI50 (LOX IMVI melanoma) was 228 nM, the TGI (LOX IMVI melanoma) was 3250 nM and the GI50 (HS 578T breast) was 5800 nM. The TGI (HS 578T breast) was > 26300 nM, the GI50 (SF-268 CNS) was 1410 nM and the TGI (SF-268 CNS) was > 100000 nM.
